Consider 52 compounds from patent US10640495B2, “Heterocycle derivatives having TrkA inhibitory activity” (Shionogi & Co., Ltd., priority 2015, dated 2020).

The term IC50 denotes the concentration at which inhibition is half-maximal.

Structures are written as SMILES. Where only a bound is given, the exact number is not on record here.

Sequence of human TrkA (P04629 440-796): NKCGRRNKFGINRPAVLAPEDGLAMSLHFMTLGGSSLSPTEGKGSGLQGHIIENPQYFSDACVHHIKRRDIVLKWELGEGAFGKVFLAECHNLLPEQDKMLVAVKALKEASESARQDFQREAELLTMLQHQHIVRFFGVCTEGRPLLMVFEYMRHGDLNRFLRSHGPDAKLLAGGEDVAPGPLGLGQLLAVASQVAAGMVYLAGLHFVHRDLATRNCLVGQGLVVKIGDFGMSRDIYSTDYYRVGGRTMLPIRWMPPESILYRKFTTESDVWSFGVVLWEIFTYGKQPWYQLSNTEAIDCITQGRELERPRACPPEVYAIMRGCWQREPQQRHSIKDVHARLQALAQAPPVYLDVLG

The first experiment deals with human TrkA (Homo sapiens (Human), UniProt P04629). In words: Human TrkA inhibition assay (Test Example 2). The following applies: Table 154, human TrkA inhibition; read-out: IC50. Type of experiment: biochemical. The gist of the method:
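Recombinant TrkA (1 nmol/L) was preincubated 15 min at room temperature with compound in HEPES/MgCl2/DTT buffer, then reacted with FL-peptide 27 (1.5 μmol/L) and ATP (500 μmol/L) for 120 min at 37 °C. After EDTA stop, substrate phosphorylation was read by microfluidic mobility shift. IC50 came from logistic regression over 3-fold dilution series.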
Take `COCC[C@@H]1C[C@@H](NC(=O)Nc2c(C)c(-c3cnc4c(c3)c(C)nn4C)nn2-c2ccccc2)[C@H](c2ccnc(F)c2)O1` [Compound I-274]: the IC50 was less than 100 nM.

For `COCC[C@@H]1C[C@@H](NC(=O)Nc2c(C)c(-c3cnc4c(c3)ncn4C)nn2-c2ccccc2)[C@H](c2ccnc(F)c2)O1` [Compound I-276], the IC50 was less than 100 nM.

For the compound `COCCN1C[C@@H](NC(=O)Nc2c(C)c(-c3cc(-c4cn(Cc5ccc(OC)cc5)nn4)c(=O)n(C)c3)nn2-c2ccccc2)[C@H](c2ccc(F)c(F)c2)O1` [Compound I-277], the half-inhibitory concentration (IC50) is less than 100 nM.

As for `COCC[C@@H]1C[C@@H](NC(=O)Nc2c(C)c(-c3cc(C)c(=O)n(C)c3)nn2-c2ccccc2)[C@H](c2ccnc(F)c2)O1` [Compound I-288], the half-inhibitory concentration (IC50) is less than 100 nM.

Turning to `COCC[C@@H]1C[C@@H](NC(=O)Nc2c(C)c(-c3cnc(N(C)C(=O)OC(C)(C)C)nc3)nn2-c2ccccc2)[C@H](c2ccnc(F)c2)O1` [Compound I-289], the IC50 was less than 100 nM.

Take `COCC[C@@H]1C[C@@H](NC(=O)Nc2c(C)c(-c3cnc(N(C(=O)OC(C)(C)C)C4CC4)nc3)nn2-c2ccccc2)[C@H](c2ccnc(F)c2)O1` [Compound I-290]: the IC50 was less than 100 nM.

`CNc1ncc(-c2nn(-c3ccccc3)c(NC(=O)N[C@@H]3C[C@@H](CCOC)O[C@H]3c3ccnc(F)c3)c2C)cn1` [Compound I-292]: the IC50 was less than 100 nM.

As to `COCC[C@@H]1C[C@@H](NC(=O)Nc2c(C)c(-c3cnc(NC4CC4)nc3)nn2-c2ccccc2)[C@H](c2ccnc(F)c2)O1` [Compound I-293], the IC50 was less than 100 nM.

Regarding `COCCC1C[C@@H](NC(=O)Nc2c(C)c(-c3cnc(COC(=O)C(C)(C)C)nc3)nn2-c2ccccc2)[C@H](c2ccccc2)O1` (stereo partly shown) [Compound I-294], the IC50 is less than 100 nM.

In the case of `COCCC1C[C@@H](NC(=O)Nc2c(C)c(OCC(C)(C)O)nn2-c2ccccc2)[C@H](c2ccccc2)O1` (stereo partly shown) [Compound I-295], the IC50 lay in the range of 100 to 1000 nM.

For the compound `COCCC1C[C@@H](NC(=O)Nc2c(C)c(-c3cnc(CO)nc3)nn2-c2ccccc2)[C@H](c2ccccc2)O1` (stereo partly shown) [Compound I-296], the half-inhibitory concentration (IC50) was less than 100 nM.

As for `COCCN1C[C@@H](NC(=O)Nc2c(C)c(-c3ccc4nc(C(N)=O)cn4c3)nn2-c2ccccc2)[C@H](c2ccc(F)c(F)c2)O1` [Compound I-310], the IC50 was less than 100 nM.

`COCCN1C[C@@H](NC(=O)Nc2c(C)c(-c3cnc(C(N)=O)c(F)c3)nn2-c2ccccc2)[C@H](c2ccc(F)c(F)c2)O1` [Compound I-312]: the IC50 is less than 100 nM.

`CNC(=O)c1ncc(-c2nn(-c3ccccc3)c(NC(=O)N[C@@H]3CN(CCOC)O[C@H]3c3ccc(F)c(F)c3)c2C)cc1F` [Compound I-314]: the half-maximal inhibitory concentration (IC50) is less than 100 nM.

Staying with this experiment, now noted: Table 155, human TrkA inhibition; read-out: IC50.
Regarding `COCC[C@@H]1C[C@@H](NC(=O)Nc2c(C)c(-c3cnc4c(c3)c(=O)n(C)n4C)nn2-c2ccccc2)[C@H](c2ccnc(F)c2)O1` [Compound I-330], the IC50 was less than 100 nM.

Regarding `COCCN1C[C@@H](NC(=O)Nc2c(C)c(-c3cccc(CN=S(C)(C)=O)c3)nn2-c2ccccc2)[C@H](c2ccc(F)c(F)c2)O1` [Compound I-333], the IC50 was less than 100 nM.

Consider `COCCN1C[C@@H](NC(=O)Nc2c(C)c(-c3ccc(N=S(C)(C)=O)nc3)nn2-c2ccccc2)[C@H](c2ccc(F)cc2)O1` [Compound I-334], for which the IC50 is less than 100 nM.

As for `COCCN1C[C@@H](NC(=O)Nc2c(C)c(-c3cnc4c(c3)nnn4C)nn2-c2ccccc2)[C@H](c2ccnc(F)c2)O1` [Compound I-342], the IC50 was less than 100 nM.

As to `COCCN1C[C@@H](NC(=O)Nc2c(C)c(N3CCN(C)C(=O)C3)nn2-c2ccccc2)[C@H](c2ccc(F)cc2)O1` [Compound I-345], the IC50 was less than 100 nM.

Regarding `COCCN1C[C@@H](NC(=O)Nc2c(C)c(-c3ccc(N4CCC(NC(C)=O)C4)nc3)nn2-c2ccccc2)[C@H](c2ccnc(F)c2)O1` (stereo partly shown) [Compound I-349], the half-inhibitory concentration (IC50) was less than 100 nM.

With `COCCN1C[C@@H](NC(=O)Nc2c(C)c(-c3cnc4c(c3)CCC4O)nn2-c2ccccc2)[C@H](c2ccnc(F)c2)O1` (stereo partly shown) [Compound I-353], the half-maximal inhibitory concentration (IC50) is less than 100 nM.

Turning to `COCCN1C[C@@H](NC(=O)Nc2c(C)c(-c3cnc(C)nc3)nn2-c2ccccc2)[C@H](c2cnc(F)c(F)c2)O1` [Compound I-358], the IC50 is less than 100 nM.

On to `COCCN1C[C@@H](NC(=O)Nc2c(C)c(-c3ccc4nc(C)nn4c3)nn2-c2ccccc2)[C@H](c2ccnc(F)c2)O1` [Compound I-359], for which the IC50 was less than 100 nM.

As to `COCCN1C[C@@H](NC(=O)Nc2c(C)c(-c3cnc(C)nc3)nn2-c2ccccc2)[C@H](c2cc(F)nc(F)c2)O1` [Compound I-361], the concentration for half-maximal inhibition (IC50) is less than 100 nM.

Consider `COCCN1C[C@H](NC(=O)Nc2c(C)c(-c3cnc(C)nc3)nn2-c2ccccc2)[C@@H](c2cc(F)nc(F)c2)O1` [Compound I-362], for which the IC50 is greater than 1000 nM.

Consider `COCCN1C[C@@H](NC(=O)Nc2c(C)c(-c3ccc4nc(C)nn4c3)nn2-c2ccccc2)[C@H](c2cnc(F)c(F)c2)O1` [Compound I-363], for which the IC50 was less than 100 nM.

Take `CNC(=O)c1cc(-c2nn(-c3ccccc3)c(NC(=O)N[C@@H]3CN(CCOC)O[C@H]3c3ccc(F)c(F)c3)c2C)cnc1OC` [Compound I-391]: the IC50 was less than 100 nM.

In the case of `COCCN1C[C@@H](NC(=O)Nc2c(C)c(-c3cnc(OC)nc3)nn2-c2ccccc2)[C@H](c2ccc(F)c(F)c2)O1` [Compound I-407], the IC50 was less than 100 nM.

As to `COCCN1C[C@@H](NC(=O)Nc2c(C)c(-c3cnc4c(c3)CN(C)C4=O)nn2-c2ccccc2)[C@H](c2ccc(F)cc2)O1` [Compound I-411], the IC50 is less than 100 nM.

As to `COCCN1C[C@@H](NC(=O)Nc2c(C)c(-c3cnc4c(cnn4C)c3)nn2-c2ccccc2)[C@H](c2cnc(F)c(F)c2)O1` [Compound I-417], the IC50 was less than 100 nM.

In the case of `COCCN1C[C@@H](NC(=O)Nc2c(C)c(-c3cnc(N4CC5(COC5)C4)nc3)nn2-c2ccccc2)[C@H](c2cnc(F)c(F)c2)O1` [Compound I-430], the IC50 was less than 100 nM.

Consider `COCCN1C[C@@H](NC(=O)Nc2c(C)c(-c3cnn(C)c3)nn2-c2ccccn2)[C@H](c2ccc(F)c(F)c2)O1` [Compound I-447], for which the IC50 is less than 100 nM.

With `COCCN1C[C@@H](NC(=O)Nc2c(C)c(-c3cccnc3)nn2-c2ccccc2)[C@H](c2ccc(F)c(F)c2)O1` [Compound I-449], the IC50 was less than 100 nM.

Turning to `COCCN1C[C@@H](NC(=O)Nc2c(C)c(-c3cccc(N(C)C)c3)nn2-c2ccccc2)[C@H](c2ccc(F)c(F)c2)O1` [Compound I-450], the IC50 is less than 100 nM.

Consider `COCCN1C[C@@H](NC(=O)Nc2c(C)c(-c3ccc4nc(CO)cn4c3)nn2-c2ccccc2)[C@H](c2ccc(F)c(F)c2)O1` [Compound I-451], for which the IC50 was less than 100 nM.

Take `COCCN1C[C@@H](NC(=O)Nc2c(C)c(-c3ccc4nccn4c3)nn2-c2ccccc2)[C@H](c2ccc(F)c(F)c2)O1` [Compound I-460]: the IC50 is less than 100 nM.

With `COCCN1C[C@@H](NC(=O)Nc2c(C)c(-c3ccn4ccnc4c3)nn2-c2ccccc2)[C@H](c2ccc(F)c(F)c2)O1` [Compound I-461], the IC50 is less than 100 nM.

As for `COCCN1C[C@@H](NC(=O)Nc2c(C)c(-c3cnc4c(c3)OCCO4)nn2-c2ccccc2)[C@H](c2ccc(F)c(F)c2)O1` [Compound I-463], the IC50 was less than 100 nM.

For the compound `COCCN1C[C@@H](NC(=O)Nc2c(C)c(-c3cnc(OC4CCN(C)CC4)nc3)nn2-c2ccccc2)[C@H](c2ccc(F)c(F)c2)O1` [Compound I-464], the IC50 was less than 100 nM.

Consider `COCCN1C[C@@H](NC(=O)Nc2c(C)c(-c3ccncc3)nn2-c2ccccc2)[C@H](c2ccc(F)c(F)c2)O1` [Compound I-466], for which the IC50 was less than 100 nM.

For the compound `COCCN1C[C@@H](NC(=O)Nc2c(C)c(-c3cnc4c(cnn4C)c3)nn2-c2ccccc2)[C@H](c2ccc(F)c(F)c2)O1` [Compound I-473], the IC50 is less than 100 nM.

For the compound `COCCN1C[C@@H](NC(=O)Nc2c(C)c(-c3cnc(N4CCN(C(=O)OCc5ccccc5)CC4)nc3)nn2-c2ccccc2)[C@H](c2ccc(F)c(F)c2)O1` [Compound I-475], the IC50 is less than 100 nM.

Take `COCCN1C[C@@H](NC(=O)Nc2c(C)c(-c3cnn(C)c3)nn2Cc2ccccc2)[C@H](c2ccc(F)c(F)c2)O1` [Compound I-492]: the half-inhibitory concentration (IC50) is greater than 1000 nM.

Staying with this experiment, now noted: human TrkA 1 nmol/L, ATP 500 μmol/L, 120 min at 37° C.; read-out: IC50 values (TrkA phosphorylation inhibition).
Regarding `COCCN1C[C@@H](NC(=O)Nc2c(C)c(-c3cnc4c(c3)c(N=S(C)(C)=O)nn4C)nn2-c2ccccc2)[C@H](c2ccc(F)c(F)c2)O1` [Compound I-298], the half-maximal inhibitory concentration (IC50) was found to be 0.6 nM.

For `CNC(=O)c1ncc(-c2nn(-c3ccccc3)c(NC(=O)N[C@@H]3CN(CCOC)O[C@H]3c3ccc(F)c(F)c3)c2C)cc1NC` [Compound I-315], the IC50 was found to be 0.76 nM.

Regarding `CNC(=O)c1cc(-c2nn(-c3ccccc3)c(NC(=O)N[C@@H]3C[C@@H](CCOC)O[C@H]3c3ccnc(F)c3)c2C)cnc1OC` [Compound I-319], the half-inhibitory concentration (IC50) amounted to 1.2 nM.

Consider `COCCN1C[C@@H](NC(=O)Nc2c(C)c(-c3cnc(OC)nc3)nn2-c2ccccc2)[C@H](c2ccnc(F)c2)O1` [Compound I-322], for which the IC50 came out at 2.4 nM.

For the compound `CNC(=O)c1ncc(-c2nn(-c3ccccc3)c(NC(=O)N[C@@H]3CN(CCOC)O[C@H]3c3ccnc(F)c3)c2C)cc1C` [Compound I-325], the 50% inhibitory concentration (IC50) amounted to 2.5 nM.

In the case of `COCC[C@@H]1C[C@@H](NC(=O)Nc2c(C)c(-c3cnc4c(c3)CC(=O)N4C)nn2-c2ccccc2)[C@H](c2ccnc(F)c2)O1` [Compound I-329], the IC50 came out at 1.7 nM.

Consider `COCCN1C[C@@H](NC(=O)Nc2c(C)c(-c3ccc(CN=S(C)(C)=O)cc3)nn2-c2ccccc2)[C@H](c2ccc(F)c(F)c2)O1` [Compound I-332], for which the concentration for half-maximal inhibition (IC50) is 1.2 nM.

As to `COCCN1C[C@@H](NC(=O)Nc2c(C)c(N3CCN(C)C(=O)C3)nn2-c2ccccc2)[C@H](c2ccc(F)c(F)c2)O1` [Compound I-344], the half-inhibitory concentration (IC50) is 0.97 nM.

Consider `CNC(=O)c1ccc(-c2nn(-c3ccccc3)c(NC(=O)N[C@@H]3CN(CCOC)O[C@H]3c3ccc(F)c(F)c3)c2C)cn1` [Compound I-458], for which the IC50 was 0.52 nM.
